Data on 37 compounds can be found in patent US20250221966A1, “RXFP1 AGONISTS” (BRISTOL-MYERS SQUIBB COMPANY, priority 2021, published 2025).

The first assay concerns the target T1, human RXFP1 (Homo sapiens, UniProt Q9HBX9).
T1 construct: expressed in transfected cells
T1 sequence (Q9HBX9 1-757): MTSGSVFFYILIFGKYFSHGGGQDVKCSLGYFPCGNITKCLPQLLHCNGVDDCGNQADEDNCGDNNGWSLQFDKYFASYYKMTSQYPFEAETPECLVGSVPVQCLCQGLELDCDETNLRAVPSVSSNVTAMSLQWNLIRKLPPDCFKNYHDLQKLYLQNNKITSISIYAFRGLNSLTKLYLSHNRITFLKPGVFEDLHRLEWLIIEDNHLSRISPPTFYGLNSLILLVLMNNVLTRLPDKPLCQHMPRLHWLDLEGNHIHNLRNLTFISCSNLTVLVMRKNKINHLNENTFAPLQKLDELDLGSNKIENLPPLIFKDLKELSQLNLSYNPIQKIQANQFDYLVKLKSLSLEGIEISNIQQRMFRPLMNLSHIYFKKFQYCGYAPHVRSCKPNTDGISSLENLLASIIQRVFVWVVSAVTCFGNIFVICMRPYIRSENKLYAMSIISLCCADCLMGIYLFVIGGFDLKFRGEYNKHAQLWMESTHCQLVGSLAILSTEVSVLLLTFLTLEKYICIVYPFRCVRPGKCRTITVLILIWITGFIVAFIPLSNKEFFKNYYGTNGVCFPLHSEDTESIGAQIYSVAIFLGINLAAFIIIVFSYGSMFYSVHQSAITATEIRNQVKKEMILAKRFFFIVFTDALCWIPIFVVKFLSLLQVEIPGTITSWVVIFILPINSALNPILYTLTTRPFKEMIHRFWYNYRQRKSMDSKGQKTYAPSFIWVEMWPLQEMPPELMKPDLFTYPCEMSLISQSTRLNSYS
The assay is described as follows: RXFP1 cAMP assay (hRXFP1 HEK293 cAMP assay, HTRF). The assay is classed as cell-based. The note with it: HEK293 cells stably expressing human RXFP1, 30 min at room temperature, read-out: cAMP hRXFP1 HEK293 Assay EC50. In outline: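 HEK293 cells stably expressing human RXFP1 were suspended in HBSS (Ca/Mg) with 20 mM HEPES, 0.05% BSA and 0.5 mM IBMX, then treated with compounds (0.010 nM–50 μM, 2% DMSO final) for 30 min at room temperature. Intracellular cAMP was measured by HTRF, and potency was derived from 4-parameter logistic fits.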
(Changes in cAMP serve as a functional read-out for many G protein-coupled receptors.)
On to `COc1ccc(-c2cc(C(OC(=O)Nc3ccccc3)C(F)(F)F)ccc2F)cc1C(=O)N[C@@H]1C2CCC(/C2=C/C2CC2)[C@@H]1C(=O)Nc1ccc(F)c(C(F)(F)F)c1` (single isomer, unassigned) [compound 224], for which the concentration giving a half-maximal response (EC50) is 2 nM.
On to `CN(C)c1c(Cl)cc(C2=NOC3COCC23)cc1C(=O)N[C@H]1[C@@H](C(=O)Nc2ccc(F)c(C(F)(F)F)c2)[C@H]2CC[C@@H]1/C2=C\C(F)(F)F` (single isomer, unassigned) [compound 670], for which the EC50 was 448 nM.
Still for that read-out and setting: in the case of `COc1ccc(C2=NO[C@H]3CC(CO)C[C@@H]23)cc1C(=O)N[C@H]1[C@@H](C(=O)Nc2ccc(F)c(C(F)(F)F)c2)[C@H]2CC[C@@H]1/C2=C\CC(C)C` (stereo partly shown) [compound 822] it was 2.5 nM.
In the case of `COc1ccc(C2=NOC(C3(O)CCCCC3)C2)cc1C(=O)N[C@H]1[C@@H](C(=O)Nc2ccc(F)c(C(F)(F)F)c2)[C@H]2CC[C@@H]1/C2=C\C1CC1` (single isomer, unassigned) [compound 615], the concentration for a half-maximal effect (EC50) is 139 nM.
For the compound `COc1ccc(C2=CCCNC2)cc1C(=O)N[C@@H]1C2CCC(C2=C(C)C)[C@@H]1C(=O)Nc1ccc(F)c(C(F)(F)F)c1` (stereo partly shown) [Example 140], the EC50 was found to be 700 nM.
Still for that read-out and setting: in the case of `COc1ccc(C2=NOC3COCC23)cc1C(=O)N[C@H]1[C@@H](C(=O)N[C@@H](C)C2(C)CC2)[C@H]2CC[C@@H]1/C2=C\C1CC1` (stereo partly shown) [compound 609] it was 130 nM; in that of `COc1ccc(-c2cc(S(=O)(=O)NC(C)(C)C)ccc2F)cc1C(=O)N[C@H]1[C@@H](C(=O)N[C@H](C)C2(C)CC2)[C@H]2CC[C@@H]1/C2=C\C1CC1` [compound 957], 5.3 nM.
With `COc1cc(C)c(C2=NOC3COCC23)cc1C(=O)N[C@H]1[C@@H](C(=O)Nc2ccc(F)c(C(F)(F)F)c2)[C@H]2CC[C@@H]1/C2=C\C1CC1` (stereo partly shown) [compound 532], the EC50 was 22.9 nM.
Same read-out and setting: in the case of `COc1ccc(-c2ccc(C(=O)NCC(=O)O)cc2F)cc1C(=O)N[C@@H]1C2CCC(/C2=C/c2ccccc2)[C@@H]1C(=O)Nc1ccc(F)c(C(F)(F)F)c1` (stereo partly shown) [compound 194] it was 5 nM.
Still for that read-out and setting: in the case of `COCCOc1ccc(-c2cc(C(=O)O)ccc2F)cc1C(=O)N[C@@H]1C2CCC(/C2=C/C2CC2)[C@@H]1C(=O)Nc1ccc(F)c(C(F)(F)F)c1` (stereo partly shown) [compound 200] it was 37 nM.
On the same count and under the same terms, in the case of `COc1cc(F)c(F)cc1C(=O)N[C@@H]1C2CCC(/C2=C/c2cccc(F)c2)[C@@H]1C(=O)Nc1ccc(F)c(C(F)(F)F)c1` (stereo partly shown) [compound 30] it was 55 nM; in that of `COc1ccc([C@@]2(O)CO[C@@H]3[C@@H](O)CO[C@@H]32)cc1C(=O)N[C@H]1[C@@H](C(=O)Nc2ccc(F)c(C(F)(F)F)c2)[C@H]2CC[C@@H]1/C2=C\C(F)(F)F` [compound 713], 1670 nM.
On to `COCCN1CCCC1c1ccc(OC)c(C(=O)N[C@@H]2C3CCC(C3=CC3CC3)[C@@H]2C(=O)Nc2ccc(F)c(C(F)(F)F)c2)c1` (stereo partly shown) [compound 689], for which the EC50 amounted to 684 nM.
Consider `COc1ccc(C2CC3CN(CCCO)C(=O)C32)cc1C(=O)N[C@H]1[C@@H](C(=O)Nc2ccc(F)c(C(F)(F)F)c2)[C@H]2CC[C@@H]1/C2=C\C1CC1` (single isomer, unassigned) [compound 734], for which the EC50 came to 23 nM.
Still for that read-out and setting: the figure for `COc1ccc(-c2cc(C(OC(=O)Nc3cccc(F)c3)C(F)(F)F)ccc2F)cc1C(=O)N[C@@H]1C2CCC(/C2=C/C2CC2)[C@@H]1C(=O)Nc1ccc(F)c(C(F)(F)F)c1` (stereo partly shown) [compound 228] is 3 nM.
Same read-out and setting: in the case of `COc1ccc(-c2cc(C(OC(=O)Nc3ccccc3)C(F)F)ccc2F)cc1C(=O)N[C@H]1[C@@H](C(=O)Nc2ccc(F)c(C(F)(F)F)c2)[C@H]2CC[C@@H]1/C2=C\C1CC1` (stereo partly drawn) [Example 233, 1-(3′-(((1R,2R,3S,4R,Z)-7-(cyclopropylmethylene)-3-((4-fluoro-3-(trifluoromethyl)phenyl)carbamoyl)bicyclo[2.2.1]heptan-2-yl)carbamoyl)-6-fluoro-4′-methoxy-[1,1′-biphenyl]-3-yl)-2,2-difluoroethyl phenylcarbamate] it was 2 nM.
Still for that read-out and setting: the figure for `COc1ccc(C2=NOC3CC(CO)CC23)cc1C(=O)N[C@H]1[C@@H](C(=O)Nc2ccc(F)c(C(F)(F)F)c2)[C@H]2CC[C@@H]1/C2=C\C1CCCC1` (stereo partly shown) [compound 445] is 0.5 nM; for `O=C(N[C@H]1[C@@H](C(=O)Nc2ccc(F)c(C(F)(F)F)c2)[C@H]2CC[C@@H]1/C2=C\C1CC1)c1cc(C2=NOC3CC(CO)CC23)cc(F)c1OCC(F)F` (stereo partly shown) [compound 789] it is 4.4 nM.
As to `COc1ccc(C2=NOC3CC(CO)CC23)cc1C(=O)N[C@@H]1C2CCC(/C2=C/C2CC2)[C@@H]1C(=O)Nc1ccc(F)c(C(F)(F)F)c1` (single isomer, unassigned) [Example 430], the concentration for a half-maximal effect (EC50) turned out to be 194 nM.
On the same count and under the same terms, in the case of `COc1cc(F)c(F)cc1C(=O)N[C@@H]1C2CCC(/C2=C/c2cccc(Cl)c2)[C@@H]1C(=O)Nc1ccc(F)c(C(F)(F)F)c1` (stereo partly shown) [compound 17] it was 120 nM; in that of `CCCC#C/C=C1\C2CCC1[C@H](C(=O)Nc1ccc(F)c(C(F)(F)F)c1)[C@@H]2NC(=O)c1cc(F)c(F)cc1OC` (stereo partly shown) [compound 135], 370 nM.
The same measure, in the same setting: the figure for `COc1ccc(-c2cc(C(COC(=O)NC3CCC3)C(F)(F)F)ccc2F)cc1C(=O)N[C@H]1[C@@H](C(=O)Nc2ccc(F)c(C(F)(F)F)c2)[C@H]2CC[C@@H]1/C2=C\C1CCCC1` (stereo partly shown) [compound 894] is 1.3 nM.
In the case of `COc1ccc(C2=NOC3CC(CO)CC23)cc1C(=O)N[C@H]1[C@@H](C(=O)NC2(C)CCCC2)[C@H]2CC[C@@H]1/C2=C\C1CC1` (stereo partly shown) [compound 466], the half-maximal effective concentration (EC50) was found to be 3.9 nM.
On the same count and under the same terms, the figure for `COc1ccc(-c2cc(C(=O)O)ccc2F)cc1C(=O)N[C@@H]1C2CCC(/C2=C/C2CC2)[C@@H]1C(=O)Oc1cccc(-c2nnnn2C)c1` (stereo partly shown) [compound 272] is 3830 nM; for `COc1cc(F)c(C2=NOC3COCC23)cc1C(=O)N[C@@H]1C2CCC(/C2=C/C2CC2)[C@@H]1C(=O)Nc1ccc(F)c(C(F)(F)F)c1` (stereo partly shown) [compound 420] it is 1 nM.
Still for that read-out and setting: the figure for `COc1ccc(-c2cc(C(F)(F)F)cnc2F)cc1C(=O)N[C@@H]1C2CCC(/C2=C/C2CC2)[C@@H]1C(=O)Nc1ccc(F)c(C(F)(F)F)c1` (stereo partly shown) [compound 282] is 25 nM.
`O=C(O)c1ccc(F)c(-c2ccc(OCCO)c(C(=O)N[C@@H]3C4CCC(/C4=C/C(F)(F)F)[C@@H]3C(=O)Nc3ccc(F)c(C(F)(F)F)c3)c2)c1` (stereo partly shown) [compound 321]: the half-maximal effective concentration (EC50) is 91 nM.
Still for that read-out and setting: the figure for `COc1ccc(C2=NOC3(CCOCC3)C2)cc1C(=O)N[C@@H]1C2CCC(/C2=C/C2CC2)[C@@H]1C(=O)Nc1ccc(F)c(C(F)(F)F)c1` (stereo partly shown) [compound 402] is 70 nM; for `COc1c(F)cc(C2=NOC3CC(CO)CC23)cc1C(=O)N[C@H]1[C@@H](C(=O)N[C@H](C)C2(C)CC2(F)F)[C@H]2CC[C@@H]1/C2=C\C1CC1` (stereo partly shown) [compound 759] it is 1 nM.
Take `COc1ccc(-c2cc(C(C)OC(=O)Nc3ccccc3)ccc2F)cc1C(=O)N[C@H]1[C@@H](C(=O)Nc2ccc(F)c(C(F)(F)F)c2)[C@H]2CC[C@@H]1/C2=C\C1CC1` (stereo partly drawn) [Example 222, 1-(3′-(((1R,2R,3S,4R,Z)-7-(cyclopropylmethylene)-3-((4-fluoro-3-(trifluoromethyl)phenyl)carbamoyl)bicyclo[2.2.1]heptan-2-yl)carbamoyl)-6-fluoro-4′-methoxy-[1,1′-biphenyl]-3-yl)ethyl phenylcarbamate]: the EC50 was found to be 1 nM.
The same measure, in the same setting: in the case of `COc1ccc(C2=NO[C@H]3COC[C@@H]23)cc1C(=O)N[C@H]1[C@@H](C(=O)N[C@H](C)C2(C)CC2)[C@H]2CC[C@@H]1/C2=C\C1CC(F)(F)C1` [compound 842] it was 4.9 nM; in that of `COc1ccc(-c2cc(CO)ccc2F)cc1C(=O)N[C@@H]1C2CCC(/C2=C/c2cnoc2)[C@@H]1C(=O)Nc1ccc(F)c(C(F)(F)F)c1` (stereo partly shown) [compound 176], 57 nM.
With `COC(=O)c1cccc(-c2ccc(OC)c(C(=O)N[C@H]3[C@@H](C(=O)Nc4ccc(F)c(C(F)(F)F)c4)[C@H]4CC[C@@H]3C4=C(C)C)c2)c1` [compound 86], the half-maximal effective concentration (EC50) came out at 150 nM.
On the same count and under the same terms, the figure for `CCCOc1c(F)cc(C2=NOC3CC(CO)CC23)cc1C(=O)N[C@H]1[C@@H](C(=O)Nc2ccc(F)c(C(F)(F)F)c2)[C@H]2CC[C@@H]1/C2=C\C1CC1` (stereo partly shown) [compound 779] is 1.6 nM; for `COc1ccc(C2=CCNCC2)cc1C(=O)N[C@@H]1C2CCC(C2=C(C)C)[C@@H]1C(=O)Nc1ccc(F)c(C(F)(F)F)c1` (stereo partly shown) [compound 148] it is 910 nM.

Staying with this assay, now noted: cAMP hRXFP1 HEK293 Assay EC50, HEK293 cells stably expressing human RXFP1, 30 min at room temperature.
`CNC(=O)OC(C(=O)O)c1ccc(F)c(-c2ccc(OC)c(C(=O)N[C@@H]3C4CCC(/C4=C/C4CC4)[C@@H]3C(=O)Nc3ccc(F)c(C(F)(F)F)c3)c2)c1` (stereo partly shown) [Example 179] yielded an EC50 of 5 nM.
Same read-out and setting: in the case of `COc1ccc(-c2cc(C(=O)O)ccc2F)cc1C(=O)N[C@@H]1C2CCC(/C2=C/C2CC2)[C@@H]1C(=O)Nc1ccc(C#N)c(C(F)(F)F)c1` (stereo partly shown) [compound 270] it was 25 nM.

By EC50 is commonly meant the concentration at which the effect is half-maximal.
